Patent US5475000A, “3-(substituted tetrazolyl)-4-oxo-4H-pyrido-[1,2-a]pyrimidines, salts thereof, pharmaceutical compositions containing them and process for preparing same” (Chinoin Gyogyszer-es Vegyeszeti Termekek Gyara Rt., priority 1991, dated 1995)
Where a name gives a salt, the structure may show the parent alone.

Experiments:
[1] = system: gastric mucosa lesion induced by 96% ethanol containing hydrochloric acid; experiment: Protective action against the gastric mucosa lesion induced by 96% ethanol containing hydrochloric acid (acid-ethanol gastric ulcer), p.o.; type: in vivo; conditions: Rattus norvegicus, po, rats, 0.5 ml of 1:0.02 mixture of 96% ethanol and hydrochloric acid, read-out: ID50 p.o. mg/kg, gastric mucosa lesion induced by 96% ethanol containing hydrochloric acid
Method: As an example, the protective action of the compounds according to the invention against gastric ulcer induced by 0.5 ml of a 1:0.02 volume ratio mixture of 96% ethanol and hydrochloric acid is illustrated in Table 1. [for the method, see: Gastroenterology 77, 433 (1979)]
Protective action in rats of the compounds according to the
invention against the gastric mucosa lesion induced by 96%
ethanol containing hydrochloric acid

[2] = system: indomethacin-induced gastric mucosa lesion; experiment: Inhibition of the indomethacin-induced gastric mucosa lesion, p.o.; type: in vivo; conditions: Rattus norvegicus, po, rats, read-out: ID50 p.o. mg/kg, indomethacin-induced gastric mucosa lesion
Description: The effect of the compounds to the invention, given as examples, against the indomethacin-induced ulcer [Arch. Int.
Inhibition of the indomethacin-induced gastric mucosa

[3] = system: indomethacin-induced duodenal ulcer; experiment: Indomethacin-induced duodenal/small intestine ulcer formation (method of Tsuromi), with lethality caused by indomethacin; type: in vivo, rat; conditions: 50 mg/kg on 4 consecutive days, 15 mg/kg oral indomethacin on 2nd day, vs control
Method: According to the method of Tsuromi (J. Pharm. Dyn. 1980, 3, 659) the compound was administered to the rats in a dose of 50 mg/kg on 4 consecutive days. On the 2nd day a 15 mg/kg oral dose of indomethacin was given to the rats. The ulcer formation was determined in the small intestine on the 3rd day following the administration of the indomethacin. In comparison to the control, the compound according to the invention exerted an inhibition of 20% on the ulcer formation and also an inhibition of 100% on the lethality caused by indomethacin.

[4] = system: gastrointestinal ulceration induced by indomethacin; experiment: Gastrointestinal ulceration induced by indomethacin (known compound); type: in vivo

Row | SMILES | ED50 [1] [mg/kg] | ED50 [2] [mg/kg] | inhibition on the ulcer formation in the small intestine ([3]; determined on 3rd day following indomethacin) [%] | inhibition on the lethality caused by indomethacin [3] [%] | prevention of the gastrointestinal ulceration induced by indomethacin [4]
1 | Cc1cccn2c(=O)c(-c3nnnn3C(C)C)cnc12 [3-(1-isopropyl-1H-tetrazol-5-yl)-9-methyl-4-oxo-4H-pyrido[1,2-a]pyrimidine] | 0.34 | – | – | – | –
2 | C=CCn1nnc(-c2cnc3c(C)cccn3c2=O)n1 [3-(2-allyl-2H-tetrazol-5-yl)-9-methyl-4-oxo-4H-pyrido[1,2-a]pyrimidine] | 2.9 | 2.5 | – | – | –
3 | CCCCn1nnc(-c2cnc3c(C)cccn3c2=O)n1 [3-(2-butyl-2H-tetrazol-5-yl)-9-methyl-4-oxo-4H-pyrido[1,2-a]pyrimidine] | 2 | – | – | – | –
4 | CC(C)n1nnc(-c2cnc3ccccn3c2=O)n1 [3-(2-isopropyl-2H-tetrazol-5-yl)-4-oxo-4H-pyrido[1,2-a]pyrimidine] | 2.2 | 4 | – | – | –
5 | Cc1cccn2c(=O)c(-c3nnn(C(C)C)n3)cnc12 [3-(2-isopropyl-2H-tetrazol-5-yl)-9-methyl-4-oxo-4H-pyrido[1,2-a]pyrimidine] | 0.23 | 2.6 | – | – | –
6 | CCCn1nnc(-c2cnc3c(C)cccn3c2=O)n1 [3-(2-propyl-2H-tetrazol-5-yl)-9-methyl-4-oxo-4H-pyrido[1,2-a]pyrimidine] | 0.05 | 5.5 | 20 | 100 | –
7 | Cc1cccn2c(=O)c(-c3nn[nH]n3)cnc12 [9-methyl-3-(5-tetrazolyl)-4-oxo-4-H-pyrido[1,2-a]pyrimidine potassium salt] | – | – | – | – | did not prevent
